Laboratory results reported in PMC9234963, “Optimizing Shape Complementarity Enables the Discovery of Potent Tricyclic BCL6 Inhibitors” (Journal of Medicinal Chemistry, 2022).
Several values for one entry are separate records, joined by “and”; a condition that tells them apart may be missing. Equal entries are not always repeated. Where two headings read alike, the source gives them in different places.

Key:
human BCL6 BTB domain = human BCL6 BTB domain (Homo sapiens, UniProt P41182); experiment: biochemical; conditions: for BCL6 TR-FRET mean pIC50: mean of replicates; for LE: ligand efficiency, 1.4*(pIC50)/HAC from TR-FRET; for LLE: lipophilic ligand efficiency from TR-FRET pIC50 and MoKa logD7.4
From the text: 6. Supplementary tables … S-17
Table S1: summary statistics and individual replicate values … S-17 […]
1. Supplementary experimental: protein production, purification and crystallography 1.1 BCL6 constructs used for assays and crystallography
A first construct of BCL6 BTB domain, which we will refer to as Trx-6His-HRV3C-BCL6, was obtained […]
3C protease cleavage site. For the TR-FRET assay, the Trx-6His-HRV3C-BCL6 protein construct was […]
used without cleaving the tag, as a 6His was needed to bind to the anti-6His-Terbium antibody. […]
For both plasmid constructs described above, transformed BL21-AI E. coli cells were grown in LB […]
carried out at 18 °C for 18 hours. Cells were harvested by centrifugation (5500 g for 30 minutes at 4 […]
oC) and stored at -80 °C.
2. Supplementary experimental: biological assay conditions
IC50 values were determined using […]
a sigmoidal four-parameter logistic fit equation.
Individual replicates shown in supplementary

[1] = NMR kinetic solubility assay; assay type: physicochemical; conditions: kinetic solubility by NMR, HEPES buffer pH 8, 4% DMSO
Experimental: 3. Supplementary experimental: physicochemical assays
The plate was then sealed and incubated at room temperature for 20 hours, without shaking. The plate was centrifuged again for 1 minute at […]
spectrometer equipped with a 5 mm TCI-CryoProbe. […]
deuterated solvent. […] All NMR data were acquired at the […]
contained 16k time-domain data points. Relaxation delay was set to 20 sec. Water signal was […]
The quantification of the compound concentration was carried out using MestReNova

[2] = HPLC kinetic solubility assay; assay type: physicochemical; conditions: kinetic solubility by HPLC, 10 mM phosphate-buffered saline pH 7.4, 1% DMSO
Experimental: 3.2 HPLC solubility assay
DMSO. Following shaking of the suspension on a Bohdan Shaker at 500 rpm for 2 hours at room […]
200 µL of the supernatant was transferred to a 2 mL Agilent vial containing 50 µL of DMSO (Sigma […]
detection using an external standard which was prepared by pipetting 10 µL of the same batch of […]
The detail of the HPLC method is as following: chromatographic separation at 30°C is carried out over a 5 minute gradient elution method from 90:10 to 10:90 water:methanol (both modified with 0.1% formic acid) at a flow rate of 1.5 mL/min. Calibration curve is prepared by injecting 0.5, 2.5, and 5 µL of compound external standard.
62.5 µL of compound solubility sample. […]

PAMPA permeability = conditions: pH 7.4
[3] = BCL6 TR-FRET IC50 individual replicates, single replicates, 10 nM BCL6 for early examples, else 1 nM
[4] = read-out: BCL6 TR-FRET IC50, geometric mean of replicates
[5] = BCL6 TR-FRET mean pIC50, mean of replicates
[6] = read-out: BCL6 TR-FRET IC50 individual replicates, single replicates, 10 nM BCL6 for early examples, else 1 nM
[7] = BCL6 TR-FRET IC50, geometric mean of replicates

SMILES | IC50 (human BCL6 BTB domain; [3]) | BCL6 TR-FRET mean pIC50 (human BCL6 BTB domain) | IC50 (human BCL6 BTB domain; [4]) | Aq. Sol [1] | also measured
CCC1CCOc2c(c3cc(Nc4ccnc(Cl)c4C#N)ccc3n(C)c2=O)N1 (stereo not shown) [Compound 11b, 2-Chloro-4-((2-ethyl-7-methyl-6-oxo-1,2,3,4,6,7-hexahydro-[1,4]oxazepino[2,3-c]quinolin-10-yl)amino)nicotinonitrile] | 454 nM and 496 nM and 1020 nM | 6.21 | 612 nM and 610 nM | 96 µM | 
CNC(=O)COc1cc2cc(Nc3nc(N4CCC(C(=O)N(C)C)CC4)ncc3Cl)cc(OC)c2n(C)c1=O [BI-3812, reference compound] | 3 nM |  |  |  | IC50 (human BCL6 BTB domain; [5]): 3.02 nM; LE (human BCL6 BTB domain): 0.31; LLE (human BCL6 BTB domain): 6.76
C[C@H]1COCc2c(c3cc(Nc4ccnc(Cl)c4C#N)ccc3n(C)c2=O)N1 [Compound 8, (S)-2-Chloro-4-((2,7-dimethyl-6-oxo-1,2,3,5,6,7-hexahydro-[1,4]oxazepino[6,5-c]quinolin-10-yl)amino)nicotinonitrile] | 2350 nM | 5.65 | 2240 nM and 2200 nM |  | IC50 (human BCL6 BTB domain; [6]): 2190 nM and 2180 nM
CC1CC(C)(C)Oc2c(c3cc(Nc4ccnc(Cl)c4C#N)ccc3n(C)c2=O)N1 (stereo not shown) [Compound 13b, 2-Chloro-4-((2,4,4,7-tetramethyl-6-oxo-1,2,3,4,6,7-hexahydro-[1,4]oxazepino[2,3-c]quinolin-10-yl)amino)nicotinonitrile] | 8700 nM and 16500 nM and > 6600 nM |  |  | 12 µM | IC50 (human BCL6 BTB domain; [7]): > 9800 nM
CCNc1c(C)c(=O)n(C)c2ccc(Nc3ccnc(Cl)c3C#N)cc12 [Compound 4, 2-Chloro-4-((4-(ethylamino)-1,3-dimethyl-2-oxo-1,2-dihydroquinolin-6-yl)amino)nicotinonitrile] | 6090 nM and 4590 nM and 6040 nM | 5.25 | 5580 nM and 5600 nM |  | IC50 (human BCL6 BTB domain; [6]): 5570 nM and 5760 nM
N#Cc1c(Nc2ccc3[nH]c(=O)c4c(c3c2)NCCC4)ccnc1Cl [Compound 5a, 2-Chloro-4-((5-oxo-1,2,3,4,5,6-hexahydrobenzo[h][1,6]naphthyridin-9-yl)amino)nicotinonitrile] | 7060 nM and 6930 nM and 3890 nM and 7370 nM | 5.21 | 6120 nM and 6100 nM |  | Aq. Sol [2]: 12 µM
Cn1c(=O)c2c(c3cc(Nc4ccnc(Cl)c4C#N)ccc31)N[C@H](C1CC1)C(F)(F)CO2 [Compound 14, (R)-2-Chloro-4-((2-cyclopropyl-3,3-difluoro-7-methyl-6-oxo-1,2,3,4,6,7-hexahydro-[1,4]oxazepino[2,3-c]quinolin-10-yl)amino)nicotinonitrile] | 615 nM and 397 nM | 6.31 | 494 nM and 490 nM |  | 
C[C@@H]1CCOc2c(c3cc(Nc4ccnc(Cl)c4C#N)ccc3n(C)c2=O)N1 [Compound 9b, (R)-2-Chloro-4-((2,7-dimethyl-6-oxo-1,2,3,4,6,7-hexahydro-[1,4]oxazepino-[2,3-c]quinolin-10-yl)amino)nicotinonitrile] |  |  |  | 190^+ μM | 
CNC(=O)COc1cc2cc(Nc3nc(N4C[C@H](C)C[C@H](C)C4)ncc3Cl)ccc2n(C)c1=O [BI-3802, reference compound] | 12 nM and 51 nM and 25 nM and 107 nM and 39 nM and 21 nM |  |  |  | IC50 (human BCL6 BTB domain; [5]): 33.1 nM; LE (human BCL6 BTB domain): 0.31; LLE (human BCL6 BTB domain): 3.98
CC1CCc2c(c3cc(Nc4ccnc(Cl)c4C#N)ccc3n(C)c2=O)N1 (stereo not shown) [Compound 5b, 2-Chloro-4-((2,6-dimethyl-5-oxo-1,2,3,4,5,6-hexahydrobenzo[h][1,6]-naphthyridin-9-yl)amino)nicotinonitrile] | 1030 nM and 960 nM and 1460 nM and 1670 nM and 6960 nM and 4820 nM | 5.68 | 2080 nM and 2100 nM |  | Aq. Sol [2]: 1.8 µM
CCNc1cc(=O)[nH]c2ccc(Nc3ccnc(Cl)c3C#N)cc12 [Compound 2] |  | 5.88 | 1310 nM and 1300 nM |  | IC50 (human BCL6 BTB domain; [7]): 1200 nM; Aq. Sol [2]: 9.7 µM; PAMPA Pe (7.4) (PAMPA permeability): <0.1 × 10^–6 cm s^–1
C[C@H]1CCOc2c(c3cc(Nc4ccnc(Cl)c4C#N)ccc3n(C)c2=O)N1 [Compound 9a, (S)-2-Chloro-4-((2,7-dimethyl-6-oxo-1,2,3,4,6,7-hexahydro-[1,4]oxazepino-[2,3-c]quinolin-10-yl)amino)nicotinonitrile] |  |  |  | 200^+ μM and 199 μM | 
Cn1c(=O)c2c(c3cc(Nc4ccnc(Cl)c4C#N)ccc31)NC(C(F)F)CCO2 (stereo not shown) [Compound 11e, 2-Chloro-4-((2-(difluoromethyl)-7-methyl-6-oxo-1,2,3,4,6,7-hexahydro-[1,4]oxazepino[2,3-c]quinolin-10-yl)amino)nicotinonitrile] | 2150 nM and 1540 nM and 2500 nM | 5.69 | 2020 nM and 2000 nM | 119 µM | 
Cn1c(=O)c2c(c3cc(Nc4ccnc(Cl)c4C#N)ccc31)NCCCO2 [Compound 10, 2-Chloro-4-((7-methyl-6-oxo-1,2,3,4,6,7-hexahydro-[1,4]oxazepino[2,3-c]quinolin-10-yl)amino)nicotinonitrile] | 15600 nM and 22400 nM | 4.73 | 18700 nM and 19000 nM |  | Aq. Sol [2]: 12 µM
CC1Nc2c(c(=O)n(C)c3ccc(Nc4ccnc(Cl)c4C#N)cc23)OCC12CC2 (stereo not shown) [Compound 13d, 2-Chloro-4-((2′,7′-dimethyl-6′-oxo-1′,2′,6′,7′-tetrahydro-4′H-spiro[cyclopropane-1,3′-[1,4]oxazepino[2,3-c]quinolin]-10′-yl)amino)nicotinonitrile] | 1070 nM and 2070 nM and 1870 nM | 5.8 | 1590 nM and 1600 nM | 126 µM | 
Cn1c(=O)c2c(c3cc(Nc4ccnc(Cl)c4C#N)ccc31)NC(C1CCC1)CCO2 (stereo not shown) [Compound 11c, 2-Chloro-4-((2-cyclobutyl-7-methyl-6-oxo-1,2,3,4,6,7-hexahydro-[1,4]oxazepino[2,3-c]quinolin-10-yl)amino)nicotinonitrile] | 3570 nM and 5260 nM | 5.37 | 4310 nM and 4300 nM | 26 µM | IC50 (human BCL6 BTB domain; [6]): 4270 nM
C[C@H]1COC(=O)c2c(c3cc(Nc4ccnc(Cl)c4C#N)ccc3n(C)c2=O)N1 [Compound 7, (S)-2-Chloro-4-((2,7-dimethyl-5,6-dioxo-1,2,3,5,6,7-hexahydro-[1,4]oxazepino[6,5-c]quinolin-10-yl)amino)nicotinonitrile] | 153 nM and 151 nM and 56 nM and 58 nM | 7.03 | 94 nM |  | IC50 (human BCL6 BTB domain; [6]): 98 nM; Papp (PAMPA permeability; PAMPA): < 0.2 ×10⁻⁶ cm/s
C[C@H]1C[C@H](C)Oc2c(c3cc(Nc4ccnc(Cl)c4C#N)ccc3n(C)c2=O)N1 [Compound 13a, 2-Chloro-4-(((2S,4S)-2,4,7-trimethyl-6-oxo-1,2,3,4,6,7-hexahydro-[1,4]oxazepino[2,3-c]quinolin-10-yl)amino)nicotinonitrile] |  |  |  | 114 µM | 
CC1Nc2c(c(=O)n(C)c3ccc(Nc4ccnc(Cl)c4C#N)cc23)OCC1(C)C (stereo not shown) [Compound 13c, 2-Chloro-4-((2,3,3,7-tetramethyl-6-oxo-1,2,3,4,6,7-hexahydro-[1,4]oxazepino[2,3-c]quinolin-10-yl)amino)nicotinonitrile] |  |  |  | 31 µM | 
CC(C)C1CCOc2c(c3cc(Nc4ccnc(Cl)c4C#N)ccc3n(C)c2=O)N1 (stereo not shown) [Compound 11d, 2-Chloro-4-((2-isopropyl-7-methyl-6-oxo-1,2,3,4,6,7-hexahydro-[1,4]oxazepino[2,3-c]quinolin-10-yl)amino)nicotinonitrile] | 2410 nM and 3460 nM and 3640 nM | 5.51 | 3120 nM and 3100 nM | 40 µM | 
CC1COc2c(c3cc(Nc4ccnc(Cl)c4C#N)ccc3n(C)c2=O)N1 (stereo not shown) [Compound 6, 2-Chloro-4-((2,6-dimethyl-5-oxo-2,3,5,6-tetrahydro-1H-[1,4]oxazino[2,3-c]quinolin-9-yl)amino)nicotinonitrile] | 1110 nM and 1390 nM and 1530 nM | 5.88 | 1330 nM and 1300 nM |  | Aq. Sol [2]: 11 µM
